Experimental data published in publication PMC11111955, “Safety and efficacy evaluation of halicin as an effective drug for inhibiting intestinal infections” (Frontiers in Pharmacology, 2024).
Converted amounts (≈) assume the structure as drawn. “Also recorded” adds a separate entry of the source. Read-outs that look alike come from different tables or passages of the source.

Assays:
[1] = tested on: S. flexneri (CMCC 51572); assay: Minimum inhibitory concentration (MIC); assay type: cell-based
Experimental: (§1) The test strains were inoculated on the corresponding solid medium and incubated overnight at 37°C. A single colony was picked from the medium and inoculated into Luria Broth (LB), and then incubated overnight at 37°C with shaking at 220 rpm. The bacterial suspension was diluted to 0.5 McFarland turbidity with Mueller Hinton broth (MHB), and then dilute 100 times for later use. Halicin was added to the 96-well plate, and diluted it to concentrations of 128, 64, 32, 16, 8, 4, 2, 1, 0.5, 0.25, 0.125, and 0 μg/mL by gradient. The 96-well plate was incubated at 37°C for 16 h, followed by observing and recording the results. The MIC was determined as the concentration at which there was no visible colony growth was observed.

[2] = tested on: Streptococcus suis (ATCC 43765); assay: Minimum inhibitory concentration (MIC); assay type: cell-based
Experimental: as §1

[3] = tested on: Proteus (CMCC (B) 49027); assay: Minimum inhibitory concentration (MIC); assay type: cell-based
Experimental: as §1

[4] = tested on: H. parasuis (ATCC 19417); assay: Minimum inhibitory concentration (MIC); assay type: cell-based
Experimental: as §1

[5] = tested on: Proteus (CMCC (B) 49027); assay: Growth kinetics curve; assay type: cell-based; details: 1/2 × to 4 × MIC
[6] = tested on: A. baumannii (ATCC 19606); assay: Minimum inhibitory concentration (MIC); assay type: cell-based, Acinetobacter baumannii
Experimental: as §1

[7] = tested on: Escherichia coli (ATCC 25922); assay: Growth kinetics curve; assay type: cell-based
[8] = tested on: Mouse spermatozoa; details: for Abnormal ratio (%) / Number of sperm abnormality: male ICR mice, oral; for Number of sperm abnormality: of 5 × 1,000 sperms observed
[9] = tested on: rats; assay: 90-Day subchronic toxicity assay
[10] = tested on: zebrafish embryos; assay: Zebrafish embryonic malformation study; assay type: in vivo; details: up to 4 μM; 24, 48 and 72 h after fertilization
Experimental: For embryonic malformation studies, groups of 20 zebrafish embryos each were treated with halicin. The concentrations of the drug were set at 4, 2, 1, and 0.5 μM, in accordance with established protocols for zebrafish embryo acute toxicity test. Observations were conducted at 24, 48, and 72 h after fertilization using a microscope. The embryonic assessment focused on six specific teratogenic endpoints: pericardial edema, yolk sac edema, cardiac malformations, morphological body shape deformities, tail deformities, and craniofacial anomalies, as well as otolith abnormalities. To minimize the impact of random variability, these experiments were performed in triplicate ([OECD, 1998]).

[11] = Pharmacokinetics of halicin in rat (oral)
[12] = tested on: K. pneumoniae (ATCC 4352); assay: Minimum inhibitory concentration (MIC); assay type: cell-based, Klebsiella pneumoniae
Experimental: as §1

[13] = tested on: bone marrow polychromatic erythrocytes; assay: Micronucleus experiment of mammalian bone marrow cells
[14] = tested on: mouse bone marrow cells; details: for Chromosome aberration (%) / Number of cells with chromosome aberration: ICR mice, oral; for Number of cells with chromosome aberration: of 5 × 100 cells at metaphase
[15] = tested on: P. aeruginosa (ATCC 27853); assay: Minimum inhibitory concentration (MIC); assay type: cell-based, Pseudomonas aeruginosa
Experimental: as §1

[16] = tested on: Salmonella typhimurium strains TA97, TA98, TA100, and WP2uvrApKM101; assay: Ames test, all strains as summarised in the text
[17] = Female mice, High-does (1009.1) mg/kg
[18] = Female mice, Low-does (252.3) mg/kg
[19] = Female mice, Medium-does (504.6) mg/kg
[20] = Male mice, High-does (1009.1) mg/kg
[21] = Male mice, Low-does (252.3) mg/kg
[22] = Male mice, Medium-does (504.6) mg/kg

Compound: Nc1nnc(Sc2ncc([N+](=O)[O-])s2)s1 [halicin]
- MIC [1]: 8 mg/L (≈ 30.6 µM)
- MIC [2]: 4 mg/L (≈ 15.3 µM)
- MIC [3]: 8 mg/L (≈ 30.6 µM)
- MIC [4]: 8 mg/L (≈ 30.6 µM)
- growth in growth kinetics curve assay [5]: completely inhibited
- MIC [6]: 8 mg/L (≈ 30.6 µM)
- growth in growth kinetics curve assay ([7]; 1/2 × MIC, E. coli (ATCC 25922)): significantly inhibited during the initial 16 h
- growth in growth kinetics curve assay ([7]; 4 × MIC, after 20 h): still proliferated significantly
- proportions of abnormal sperm compared with the negative control group ([8]; 1009.1, 504.6 and 252.3 mg/kg, p > 0.05): not significantly different
- Abnormal sperms counted ratio (%): Amorphous ([8]; High-dose (1009.1) mg/kg): 23.6 ± 12.44%
- Abnormal sperms counted ratio (%): Banana shape ([8]; High-dose (1009.1) mg/kg): 42.52 ± 12.57%
- Abnormal sperms counted ratio (%): Kinks tail ([8]; High-dose (1009.1) mg/kg): 3.05 ± 2.79%
- Abnormal sperms counted ratio (%): Large round head ([8]; High-dose (1009.1) mg/kg): 9.07 ± 4.02%
- Abnormal sperms counted ratio (%): No hook ([8]; High-dose (1009.1) mg/kg): 15.6 ± 5.5%
- Abnormal sperms counted ratio (%): Two head ([8]; High-dose (1009.1) mg/kg): 3.05 ± 2.79%
- Abnormal sperms counted ratio (%): Two tail ([8]; High-dose (1009.1) mg/kg): 3.11 ± 2.84%
- Abnormal sperms counted ratio (%): Amorphous ([8]; Low-dose (252.3) mg/kg): 39.81 ± 3%
- Abnormal sperms counted ratio (%): Banana shape ([8]; Low-dose (252.3) mg/kg): 35.98 ± 3.94%
- Abnormal sperms counted ratio (%): Kinks tail ([8]; Low-dose (252.3) mg/kg): 1.18 ± 2.63%
- Abnormal sperms counted ratio (%): Large round head ([8]; Low-dose (252.3) mg/kg): 3.92 ± 3.58%
- Abnormal sperms counted ratio (%): No hook ([8]; Low-dose (252.3) mg/kg): 16.61 ± 3.11%
- Abnormal sperms counted ratio (%): Two head ([8]; Low-dose (252.3) mg/kg): 1.33 ± 2.98%
- Abnormal sperms counted ratio (%): Two tail ([8]; Low-dose (252.3) mg/kg): 1.18 ± 2.63%
- Abnormal sperms counted ratio (%): Amorphous ([8]; Medium-dose (504.6) mg/kg): 29.69 ± 2.67%
- Abnormal sperms counted ratio (%): Banana shape ([8]; Medium-dose (504.6) mg/kg): 35.81 ± 4.52%
- Abnormal sperms counted ratio (%): Kinks tail ([8]; Medium-dose (504.6) mg/kg): 2.44 ± 3.37%
- Abnormal sperms counted ratio (%): Large round head ([8]; Medium-dose (504.6) mg/kg): 11.96 ± 0.96%
- Abnormal sperms counted ratio (%): No hook ([8]; Medium-dose (504.6) mg/kg): 16.7 ± 2.71%
- Abnormal sperms counted ratio (%): Two head ([8]; Medium-dose (504.6) mg/kg): 2.22 ± 3.04%
- Abnormal sperms counted ratio (%): Two tail ([8]; Medium-dose (504.6) mg/kg): 1.18 ± 2.63%
- Abnormal ratio (%) ([8]; High-dose (1009.1) mg/kg): 2.12 ± 0.38%
- Number of sperm abnormality ([8]; High-dose (1009.1) mg/kg): 110
- Abnormal ratio (%) ([8]; Low-dose (252.3) mg/kg): 1.56 ± 0.09%
- Number of sperm abnormality ([8]; Low-dose (252.3) mg/kg): 78
- Abnormal ratio (%) ([8]; Medium-dose (504.6) mg/kg): 1.68 ± 0.13%
- Number of sperm abnormality ([8]; Medium-dose (504.6) mg/kg): 84
- water consumption and mental states ([9]; all dosage groups): no significant changes
- body weight of female rats compared with the control group ([9]; all halicin treatment groups, 90 days, p > 0.05): no significant difference
- mortality ([9]; any experimental group (50.5-201.8 mg/kg), 90 days): No mortality
- weight of organs compared with the control group ([9]; end of the experiment, all treatment groups, p > 0.05): no significant difference
- maximum safe concentration ([9]; from the safety assessment): 50.5 mg/kg
- kidney findings (autopsy, HE sections) ([9]; high dose 201.8 mg/kg, 201.8 mg/kg): slight renal inflammation; also recorded: kidney lesions
- body weight of male rats compared with the control group ([9]; high-dose group (201.8 mg/kg), oral, 90 days, p < 0.05): significantly lower
- serum ALT and AST levels compared with the control group ([9]; high-dose, p < 0.01): significantly reduced
- diet compared with the control group ([9]; low-dose group (50.5 mg/kg), p > 0.05): No significant differences
- dosages with good safety and tolerability ([9]; rats, oral, 90 days): below 50.5 mg/kg
- teratogenic effects on the embryos [10]: no significant teratogenicity; also recorded: no any significant teratogenic effects
- AUC0-last ([11]; High dose (50 mg/kg)): 0.45958 ± 0.03453 µg·h/mL
- AUC0-∞ ([11]; High dose (50 mg/kg)): 0.51086 ± 0.04662 µg·h/mL
- Cl/F ([11]; High dose (50 mg/kg)): 58.98317 ± 7.0413 L/h/kg
- Cmax ([11]; High dose (50 mg/kg)): 0.06425 ± 0.00198 µg/mL
- MRTlast ([11]; High dose (50 mg/kg)): 5.85 ± 0.13 h
- T1/2λz ([11]; High dose (50 mg/kg)): 8.57 ± 0.22 h
- Tmax ([11]; High dose (50 mg/kg)): 1.33 ± 1.41 h
- Vd/F ([11]; High dose (50 mg/kg)): 828.26908 ± 70.84029 L/kg
- λz ([11]; High dose (50 mg/kg)): 0.085 ± 0.0016 h⁻¹
- AUC0-last ([11]; Low dose (10 mg/kg)): 0.31805 ± 0.03127 µg·h/mL
- AUC0-∞ ([11]; Low dose (10 mg/kg)): 0.39588 ± 0.04241 µg·h/mL
- Cl/F ([11]; Low dose (10 mg/kg)): 25.3604 ± 2.66185 L/h/kg
- Cmax ([11]; Low dose (10 mg/kg)): 0.04099 ± 0.00237 µg/mL
- MRTlast ([11]; Low dose (10 mg/kg)): 7.58 ± 0.41 h
- T1/2λz ([11]; Low dose (10 mg/kg)): 10.32 ± 2.22 h
- Tmax ([11]; Low dose (10 mg/kg)): 1.33 ± 1.41 h
- Vd/F ([11]; Low dose (10 mg/kg)): 375.07455 ± 41.94437 L/kg
- λz ([11]; Low dose (10 mg/kg)): 0.068 ± 0.016 h⁻¹
- drug concentration in the blood ([11]; at 24 h after drug administration): ≤ 0.005 µg/mL
- absorption and elimination in vivo ([11]; drug metabolism experiments): poorly absorbed and quickly eliminated
- MIC [12]: 8 mg/L (≈ 30.6 µM)
- PCE micronucleus (‰) [13, 17]: 2.2 ± 0.8 ‰
- PCE/RBC [13, 17]: 0.72 ± 0.08
- PCE micronucleus (‰) [13, 18]: 1.2 ± 0.4 ‰
- PCE/RBC [13, 18]: 1.09 ± 0.06
- PCE micronucleus (‰) [13, 19]: 0.8 ± 0.4 ‰
- PCE/RBC [13, 19]: 1.06 ± 0.07
- PCE micronucleus (‰) [13, 20]: 0.8 ± 0.8 ‰
- PCE/RBC [13, 20]: 0.76 ± 0.03
- PCE micronucleus (‰) [13, 21]: 0.6 ± 0.5 ‰
- PCE/RBC [13, 21]: 1.07 ± 0.09
- PCE micronucleus (‰) [13, 22]: 1 ± 0.7 ‰
- PCE/RBC [13, 22]: 1.08 ± 0.11
- micronucleus ratio compared with the negative control group ([13]; high-dose (1009.1 mg/kg), p < 0.01): significant difference
- micronucleus ratio compared with the negative control group ([13]; medium (504.6 mg/kg) and low-dose (252.3 mg/kg), p > 0.05): no significant difference
- teratogenic effect on bone marrow cells ([14]; 252.3 mg/kg to 1009.1 mg/kg, p > 0.05 vs negative control): no significant teratogenic effect
- Chromosome aberration (%) ([14]; High-does (1009.1) mg/kg): 1.4 ± 0.55%
- Number of cells with chromosome aberration ([14]; High-does (1009.1) mg/kg): 7
- Chromosome aberration (%) ([14]; Low-does (252.3) mg/kg): 1.4 ± 1.14%
- Number of cells with chromosome aberration ([14]; Low-does (252.3) mg/kg): 7
- Chromosome aberration (%) ([14]; Medium-does (504.6) mg/kg): 1.6 ± 0.89%
- Number of cells with chromosome aberration ([14]; Medium-does (504.6) mg/kg): 8
- MIC [15]: 64 mg/L (≈ 245 µM)
- bacterial counts of the four strains ([16]; 22.5 μg/plate, due to antibacterial effect): significantly decreased
- mutagenicity in the Ames test ([16]; concentrations below 11.2 μg/plate, with or without S9): non-mutagenic
